Experimental data taken from PubChem BioAssay AID248 (DTP/NCI, 2004).
Values joined by “and” are separate entries in the source; they are usually repeats but may differ in a detail not shown here. Equal entries are not always repeated. Toxic doses and inconclusive results are not listed.

System: L1210 leukemia ip in BDF1 mice, survival T/C
Assay: NCI In Vivo Anticancer Drug Screen. Data for tumor model L1210 Leukemia (intraperitoneal) in B6D2F1 (BDF1) mice
Conditions: endpoint: mean survival time, higher = longer survival
In short: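 Antitumor effect is assessed in tumor-bearing animals. Survival in the compound arm is compared with a vehicle-dosed control arm and expressed as their quotient.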

[1] = dose: 100.0 mg/kg/injection, schedule: Q04DX003 (ip), vehicle: saline
[2] = dose: 200.0 mg/kg/injection, schedule: Q04DX003 (ip), vehicle: saline
[3] = dose: 400.0 mg/kg/injection, schedule: Q04DX003 (ip), vehicle: saline
[4] = dose: 100.0 mg/kg/injection, schedule: Q04DX002 (ip), vehicle: Klucel (hydroxypropylcellulose) (HPC)
[5] = dose: 200.0 mg/kg/injection, schedule: Q04DX002 (ip), vehicle: Klucel (hydroxypropylcellulose) (HPC)
[6] = dose: 400.0 mg/kg/injection, schedule: Q04DX002 (ip), vehicle: Klucel (hydroxypropylcellulose) (HPC)
[7] = dose: 100.0 mg/kg/injection, schedule: Q04DX003 (ip), vehicle: saline with Tween-80
[8] = dose: 200.0 mg/kg/injection, schedule: Q04DX003 (ip), vehicle: saline with Tween-80
[9] = dose: 400.0 mg/kg/injection, schedule: Q04DX003 (ip), vehicle: saline with Tween-80
[10] = dose: 100.0 mg/kg/injection, schedule: Q04DX002 (ip), vehicle: saline
[11] = dose: 200.0 mg/kg/injection, schedule: Q04DX002 (ip), vehicle: saline
[12] = dose: 400.0 mg/kg/injection, schedule: Q04DX002 (ip), vehicle: saline
[13] = dose: 25.0 mg/kg/injection, schedule: Q04DX003 (ip), vehicle: Klucel (hydroxypropylcellulose) (HPC)
[14] = dose: 50.0 mg/kg/injection, schedule: Q04DX003 (ip), vehicle: Klucel (hydroxypropylcellulose) (HPC)
[15] = dose: 100.0 mg/kg/injection, schedule: Q01DX009 (ip), vehicle: saline with Tween-80
[16] = dose: 200.0 mg/kg/injection, schedule: Q01DX009 (ip), vehicle: saline with Tween-80
[17] = dose: 400.0 mg/kg/injection, schedule: Q01DX009 (ip), vehicle: saline with Tween-80

`Cc1ccc(S(=O)(=O)NCCCCCC(=O)OCc2ccccc2)cc1` was tested, and the T/C (dose: 50.0 mg/kg/injection, schedule: Q01DX009 (ip), vehicle: saline) was 97 % of control, the T/C (dose: 100.0 mg/kg/injection, schedule: Q01DX009 (ip), vehicle: saline) was 94 % of control and 100 % of control and the T/C [1] was 108 % of control. For the same compound, the T/C (dose: 200.0 mg/kg/injection, schedule: Q01DX009 (ip), vehicle: saline) was 96 % of control and 104 % of control, the T/C [2] was 101 % of control and the T/C (dose: 400.0 mg/kg/injection, schedule: Q01DX009 (ip), vehicle: saline) was 94 % of control. The T/C [3] was 100 % of control.
In the case of `C=CC(C)(C)C(=C)C`, the T/C [1] is reported as 110 % of control, the T/C [2] is reported as 108 % of control and the T/C [3] is reported as 101 % of control.
With `c1ccc(NC2CCCCC2)cc1` the T/C (dose: 50.0 mg/kg/injection, schedule: Q01DX003 (ip), vehicle: Klucel (hydroxypropylcellulose) (HPC)) was 103 % of control, the T/C (dose: 100.0 mg/kg/injection, schedule: Q01DX003 (ip), vehicle: Klucel (hydroxypropylcellulose) (HPC)) was 101 % of control and the T/C (dose: 200.0 mg/kg/injection, schedule: Q01DX003 (ip), vehicle: Klucel (hydroxypropylcellulose) (HPC)) was 101 % of control.
In the case of `CC(=O)OCCOC(=O)Nc1cccc2ccccc12`, the T/C [4] is reported as 100 % of control, the T/C [5] is reported as 100 % of control and the T/C [6] is reported as 97 % of control.
In the case of `COc1cc(C=Nc2ccc(-c3nc(C)sc3C)cc2)ccc1N(CCCl)CCCl`, the T/C (dose: 11.0 mg/kg/injection, schedule: Q01DX009 (ip), vehicle: carboxymethylcellulose (CMC)) is reported as 200 % of control, the T/C (dose: 11.1 mg/kg/injection, schedule: Q01DX001 (ip), vehicle: carboxymethylcellulose (CMC)) is reported as 118 % of control and the T/C (dose: 16.6 mg/kg/injection, schedule: Q01DX009 (ip), vehicle: carboxymethylcellulose (CMC)) is reported as 90 % of control. For the same compound, the T/C (dose: 25.0 mg/kg/injection, schedule: Q01DX001 (ip), vehicle: carboxymethylcellulose (CMC)) was 202 % of control.
`COC(OC)c1[nH]c(=S)[nH]c(=O)c1Cc1c(Cl)cccc1Cl` was tested, and the T/C [7] was 101 % of control, the T/C [8] was 103 % of control and the T/C [9] was 94 % of control.
With `CC(=O)OC1CC23CCC(=O)C2(CC3)C1` (stereo unspecified) the T/C (dose: 100.0 mg/kg/injection, schedule: Q04DX002 (ip), vehicle: saline with Tween-80) was 99 % of control, the T/C (dose: 200.0 mg/kg/injection, schedule: Q04DX002 (ip), vehicle: saline with Tween-80) was 111 % of control and the T/C (dose: 400.0 mg/kg/injection, schedule: Q04DX002 (ip), vehicle: saline with Tween-80) was 99 % of control.
`CC12CCC(=O)C=C1CCC1C2C(=O)CC2(C)C1CCC2(O)C(=O)CSc1ncnc2nc[nH]c12` (stereo unspecified) was tested, and the T/C (dose: 100.0 mg/kg/injection, schedule: Q01DX001 (sc), vehicle: steriod suspending solution) was 103 % of control, the T/C (dose: 200.0 mg/kg/injection, schedule: Q01DX001 (sc), vehicle: steriod suspending solution) was 106 % of control and the T/C (dose: 400.0 mg/kg/injection, schedule: Q01DX001 (sc), vehicle: steriod suspending solution) was 112 % of control.
`S=C(SP(SC(=S)N1CCCCC1)SC(=S)N1CCCCC1)N1CCCCC1` was tested, and the T/C [10] was 95 % of control, the T/C [11] was 89 % of control and the T/C [12] was 95 % of control.
`CCOC(=O)CCc1c(C(=O)O)[nH]c(C(=O)OCC)c1C` was tested, and the T/C [13] was 102 % of control, the T/C [14] was 107 % of control and the T/C (dose: 100.0 mg/kg/injection, schedule: Q01DX001 (ip), vehicle: Klucel (hydroxypropylcellulose) (HPC)) was 98 % of control. For the same compound, the T/C (dose: 100.0 mg/kg/injection, schedule: Q04DX003 (ip), vehicle: Klucel (hydroxypropylcellulose) (HPC)) was 102 % of control, the T/C (dose: 200.0 mg/kg/injection, schedule: Q01DX001 (ip), vehicle: Klucel (hydroxypropylcellulose) (HPC)) was 97 % of control and the T/C (dose: 200.0 mg/kg/injection, schedule: Q04DX003 (ip), vehicle: Klucel (hydroxypropylcellulose) (HPC)) was 93 % of control. For the same compound, the T/C (dose: 400.0 mg/kg/injection, schedule: Q01DX001 (ip), vehicle: Klucel (hydroxypropylcellulose) (HPC)) was 97 % of control and the T/C (dose: 400.0 mg/kg/injection, schedule: Q04DX003 (ip), vehicle: Klucel (hydroxypropylcellulose) (HPC)) was 101 % of control.
In the case of `CSc1cc2c(cc1NC(C)=O)Cc1ccccc1-2`, the T/C (dose: 100.0 mg/kg/injection, schedule: Q01DX001 (ip), vehicle: carboxymethylcellulose (CMC)) is reported as 93 % of control, the T/C (dose: 200.0 mg/kg/injection, schedule: Q01DX001 (ip), vehicle: carboxymethylcellulose (CMC)) is reported as 95 % of control and the T/C (dose: 400.0 mg/kg/injection, schedule: Q01DX001 (ip), vehicle: carboxymethylcellulose (CMC)) is reported as 95 % of control.
With `OC(c1ccccc1)(c1ccccc1)C(c1ccccc1)c1ccccc1` the T/C (dose: 100.0 mg/kg/injection, schedule: Q04DX003 (ip), vehicle: acetone) was 93 % of control, the T/C (dose: 200.0 mg/kg/injection, schedule: Q04DX003 (ip), vehicle: acetone) was 97 % of control and the T/C (dose: 400.0 mg/kg/injection, schedule: Q04DX003 (ip), vehicle: acetone) was 87 % of control.
In the case of `O=C(O)CS(=O)(=O)C(c1ccccc1)c1ccccc1`, the T/C (dose: 100.0 mg/kg/injection, schedule: Q01DX001 (ip), vehicle: saline) is reported as 94 % of control, the T/C (dose: 200.0 mg/kg/injection, schedule: Q01DX001 (ip), vehicle: saline) is reported as 97 % of control and the T/C (dose: 400.0 mg/kg/injection, schedule: Q01DX001 (ip), vehicle: saline) is reported as 96 % of control.
With `CCOC(=O)c1cnc(SC)nc1Sc1ccc(Cl)cc1` the T/C [15] was 96 % of control, the T/C [7] was 96 % of control and the T/C [16] was 94 % of control. For the same compound, the T/C [8] was 96 % of control, the T/C [17] was 98 % of control and the T/C [9] was 94 % of control.
`CN(C)CCCC1C2CCC(C2)C1C#N` (stereo unspecified) was tested, and the T/C (dose: 12.5 mg/kg/injection, schedule: Q01DX009 (ip), vehicle: Klucel (hydroxypropylcellulose) (HPC)) was 104 % of control, the T/C (dose: 25.0 mg/kg/injection, schedule: Q01DX009 (ip), vehicle: Klucel (hydroxypropylcellulose) (HPC)) was 95 % of control and the T/C [13] was 96 % of control. For the same compound, the T/C (dose: 50.0 mg/kg/injection, schedule: Q01DX009 (ip), vehicle: Klucel (hydroxypropylcellulose) (HPC)) was 104 % of control and the T/C [14] was 93 % of control.
`NC(=S)N1N=C(c2cccc([N+](=O)[O-])c2)CCC1=O` was tested, and the T/C [15] was 92 % of control, the T/C [16] was 92 % of control and the T/C [17] was 101 % of control.
With `N#CC1(C#N)OC1c1ccccc1Cl` (stereo unspecified) the T/C (dose: 10.0 mg/kg/injection, schedule: Q04DX002 (ip), vehicle: Klucel (hydroxypropylcellulose) (HPC)) was 100 % of control and the T/C (dose: 20.0 mg/kg/injection, schedule: Q04DX002 (ip), vehicle: Klucel (hydroxypropylcellulose) (HPC)) was 100 % of control.
`ClC1=C(Cl)C2(Cl)C3C4CC(C(I)C4I)C3C1(Cl)C2(Cl)Cl` (stereo unspecified) was tested, and the T/C (dose: 75.0 mg/kg/injection, schedule: Q01DX001 (ip), vehicle: other) was 98 % of control and the T/C (dose: 150.0 mg/kg/injection, schedule: Q01DX001 (ip), vehicle: other) was 95 % of control.
For `Cc1ccc(Cl)c(C(=O)C(Br)C(Br)c2ccccc2)c1` (stereo unspecified), the T/C (dose: 12.5 mg/kg/injection, schedule: Q01DX009 (ip), vehicle: saline with Tween-80) was 100 % of control, the T/C (dose: 25.0 mg/kg/injection, schedule: Q01DX009 (ip), vehicle: saline with Tween-80) was 100 % of control and the T/C (dose: 50.0 mg/kg/injection, schedule: Q01DX009 (ip), vehicle: saline with Tween-80) was 94 % of control and 100 % of control.
With `O=C1NC23CC=CCC12CCC3` (stereo unspecified) the T/C [10] was 100 % of control, the T/C [11] was 93 % of control and the T/C [12] was 109 % of control.
In the case of `COC1OC2COc3ccccc3OC2C2C1N2C(N)=O` (stereo unspecified), the T/C [4] is reported as 104 % of control, the T/C [5] is reported as 96 % of control and the T/C [6] is reported as 100 % of control.
